Data reported in patent US10155802B2, “Locally-active anticoagulants and anti-inflammatory agents” (priority 2011, dated 2018).
Positions of bridges follow the written chain, without caps; N, C: chain ends. Non-standard residues stand in square brackets, D forms with d. Residues, ends and D or L forms follow the SMILES beside them. Chains are numbered I, II in the order given. No end group written: not given here. *: point of attachment. Benzenesulfonyl(4-tBu) = CC(C)(C)c1ccc(S(=O)(=O)*)cc1; Dansyl = CN(C)c1cccc2c(S(=O)(=O)*)cccc12; dTic = O=C(O)[C@H]1Cc2ccccc2CN1; dPip = O=C(O)[C@H]1CCCCN1

Experiments:
Type in all cases: biochemical
Human α-thrombin [1] = molecular target: T1, Human α-thrombin (Homo sapiens, UniProt P00734); experiment: Inhibition of thrombin-catalyzed hydrolysis of chromogenic substrate S-2366 (inhibition constant Ki); settings: Ki
T1 construct: Human α-thrombin was purchased from Haemotologic Technologies, Inc., VT, USA; purchased Haemotologic Technologies, Inc., VT, USA

Human α-thrombin [2] = molecular target: T1, Human α-thrombin; experiment: Thrombin inhibition constants of monovalent active-site moieties and TWE1 (method not described)
pooled human plasma [3] = experiment: Prothrombin time (PT, thromboplastin) clotting assay
Protocol: (§1) Prothrombin (clotting) time (PT) or activated partial thromboplastin (clotting) time (APTT) assays were carried out at certain concentrations of the thrombin inhibitors of the present invention using pooled human plasma with addition of thromboplastin or activated partial thromboplastin to initiate clotting. The assays employed kits from Biopool International (Ventura, Calif., USA) or from Pacific Haemostasis (Middletown, Va., USA) using the procedures supplied by the manufacturer. Briefly, the stock solution of an inhibitor (with the concentration determined using UV-based OD determination, see Gill 1989) is diluted in a buffer of 20 mM HEPES and 150 mM NaCl at pH 7.4 (HBS) to a final volume of 50 μL, to which is added the reconstituted normal plasma (Product #CMS-176172 from Fisher Scientific) in an equal volume. This solution mixture is equilibrated at 37° C. for 2 minutes before 50 μL of the APTT-10XL solution (CMS-022927) is introduced forcibly to ensure proper mixing. This new mixture was incubated at 37° C. for another 5 minutes, which is followed by the addition of 50 μL of 0.02 M […] (Fisher Scientific CMS-022925) pre-warmed at 37° C. For the prothrombin time (PT) assay, an inhibitor is diluted in HBS to a final volume of 25 μL, to which is added the reconstituted control plasma (Fisher Scientific CMS-176172) in an equal volume. This solution mixture is equilibrated at 37° C. for 5 minutes before addition of 100 μL of the thromboplastin solution (CMS-176099) pre-warmed at 37° C. For APTT assays, inhibitory activities of the peptides are expressed as concentrations needed to achieve 50% of the maximum delay in clotting time (MCT50) as compared to the absence of thrombin inhibitors (Maraganore 1989). For PT assays, inhibitory activities are measured as the concentrations of the peptides that prolong the clotting time by 50% (IC50) of that of the normal control plasma (Maraganore 1990). PT and APTT assays were also carried out using slightly modified experimental procedures. Thus, 50 μL of a control plasma (Pacific Hemostasis) solution was added to 100 μL HBS (20 mM HEPES and 150 mM NaCl at pH 7.4) containing varied concentrations of the peptides of this invention. After incubation at 37° C. for 5 min, the mixture was added to 50 μL of the thromboplastin or activated partial thromboplastin reagent. Clotting of the plasma was monitored by change in absorbance at 420 nm using a SpectraMax™ plate reader.

pooled human plasma [4] = experiment: Activated partial thromboplastin time (APTT) clotting assay; settings: 37° C.; concentration for 50% of maximum delay in clotting time; read-out: MTC50 (APTT)
Protocol: as §1

thrombin = thrombin (Homo sapiens, UniProt P00734); experiment: Fibrinogen clotting assay (concentration needed to double the clotting time = IC50)
Protocol: The same enzyme kinetic assays were used to determine the inhibitory activities of MH2 and two MH2-derived peptides, MH2-allGS and MH2-GS (Table 4). Clotting assays were carried out to determine the inhibitory activities of the rest of the MH2 peptides by use of the protocols described previously (DiMaio 1990; Taka 2000; Su 2004). The assay employs bovine plasma fibrinogen dissolved at 0.1% in 50 mM Tris-Cl, 100 mM NaCl, 0.1% PEG-8000 at pH 7.6 (i.e. the clotting buffer). In addition to the use of optical densities or ODs (Gill 1989), concentrations of the peptide stock solutions were ranked (and corrected when necessary) by use of quantitative proton NMR spectroscopy (Cavaluzzi 2002). Each assay mixture contained a certain concentration of the peptide, and the reaction was started by the addition of human thrombin to a final concentration of approximately 0.5 nM. Optical absorbance of the assay mixtures was measured at 420 nm using the Spectramax™ plate reader. The onset clotting time was determined as an intersection of the baseline and the tangent line at point of inflection of the clotting curve. The concentration of an MH2 peptide needed to double the clotting time was defined as IC50 (DiMaio 1990) as illustrated in FIG. 4 and summarized in Table 4. The correlation between IC50 values and linker unfolding is similar to that for the BTI series of inhibitors (Table 3). […] (Table 3).

[5] = monovalent binding moieties for the active site of thrombin

Row | Compound | Ki (Human α-thrombin [2]; [5]) [nM] | other results
1 | CC[C@H](C)[C@H](NC(=O)[C@H](CCC(=O)O)NC(=O)[C@H](CCC(=O)O)NC(=O)[C@H](Cc1ccccc1)NC(=O)[C@H](CC(=O)O)NC(=O)CNC(=O)[C@H](CCC(=O)O)NC(=O)[C@@H](NC(=O)[C@H](Cc1c[nH]c2ccccc12)NC(=O)[C@@H](NC(=O)[C@H](Cc1c[nH]c2ccccc12)NC(=O)[C@@H](NC(=O)[C@H](CCCCN)NC(=O)[C@@H](NC(=O)[C@H](C)NC(=O)[C@H](CC(=O)O)NC(=O)[C@H](CC(=O)O)NC(=O)[C@H](Cc1c[nH]c2ccccc12)NC(=O)[C@@H](NC(=O)[C@H](Cc1c[nH]c2ccccc12)NC(=O)[C@H](CCC(=O)O)NC(=O)CNC(=O)[C@H](CC(=O)O)NC(=O)[C@@H](NC(=O)[C@H](Cc1ccccc1)NC(=O)[C@H](CCCNC(=N)N)NC(=O)[C@@H]1CCCN1)[C@@H](C)O)[C@@H](C)O)[C@@H](C)O)[C@@H](C)O)[C@@H](C)O)[C@@H](C)O)C(=O)N1CCC[C@H]1C(=O)N[C@@H](CCC(=O)O)C(=O)N[C@@H](CCC(=O)O)C(=O)N[C@@H](Cc1ccc(O)cc1)C(=O)N[C@@H](CC(C)C)C(=O)N[C@@H](CCC(N)=O)C(=O)O [BRI-T109] | – | Ki (Human α-thrombin [1]; FIG. 14A): 1450 nM
2 | CC(C)(C)c1ccc(S(=O)(=O)N[C@@H](CCCNC(=N)N)C(=O)N2CCCC[C@@H]2C(=O)NCC(N)=O)cc1 [Bbs-R-(d-Pip)-G-NH2] | 2260 ± 100 | –
3 | CC[C@H](C)[C@H](N)C(=O)N[C@@H](CCCNC(=N)N)C(=O)N[C@@H](Cc1ccccc1)C(=O)N[C@H](C(=O)N[C@@H](CC(=O)O)C(=O)NCC(=O)N[C@@H](CCC(=O)O)C(=O)N[C@@H](Cc1c[nH]c2ccccc12)C(=O)N[C@H](C(=O)N[C@@H](Cc1c[nH]c2ccccc12)C(=O)N[C@@H](CC(=O)O)C(=O)N[C@@H](CC(=O)O)C(=O)N[C@@H](C)C(=O)N[C@H](C(=O)N[C@@H](CCCCN)C(=O)N[C@H](C(=O)N[C@@H](Cc1c[nH]c2ccccc12)C(=O)N[C@H](C(=O)N[C@H](C(=O)N[C@H](C(=O)N[C@@H](CCC(=O)O)C(=O)NCC(=O)N[C@@H](CC(=O)O)C(=O)N[C@@H](Cc1ccccc1)C(=O)N[C@@H](CCC(=O)O)C(=O)N[C@@H](CCC(=O)O)C(=O)N[C@H](C(=O)N1CCC[C@H]1C(=O)N[C@@H](CCC(=O)O)C(=O)N[C@@H](CCC(=O)O)C(=O)N[C@@H](Cc1ccc(O)cc1)C(=O)N[C@@H](CC(C)C)C(=O)N[C@@H](CCC(N)=O)C(=O)O)[C@@H](C)CC)[C@@H](C)O)C(C)C)[C@@H](C)O)[C@@H](C)O)[C@@H](C)O)[C@@H](C)O)[C@@H](C)O [MH2-wZIP6] | – | concentrations required in PT-APTT curves relative to MH2-GS (pooled human plasma [3]): about 2.5 times; IC50 (pooled human plasma [3]; 37° C., concentration that prolongs clotting time by 50%): < 400 nM; EC50 (pooled human plasma [4]): 3000 nM; IC50 (thrombin; IC50 (anti-clotting), T = 37° C.): 53 nM
4 | CC(C)(C)c1ccc(S(=O)(=O)N[C@@H](CCCNC(=N)N)C(=O)N2CCCC[C@@H]2C(N)=O)cc1 [Bbs-R-(d-Pip)-NH2] | 1130 ± 30 | –
5 | variant of BTI1: disulfide-bond linkage between Bbs-Arg-(D-Pip)-Gly-Cys and 15N-labelled Cys-(GS)8-GDFEEIPEEYLQ (peptide 1 {Benzenesulfonyl(4-tBu)}-R[dPip]GC; peptide 2 CGSGSGSGSGSGSGSGSGDFEEIPEEYLQ; disulfide I:4-II:1; also: chain 2 15N-labelled) [TWE1] | – | Ki (Human α-thrombin [2]; bivalent inhibitor TWE1): 2.2 ± 0.4 nM
6 | CC(C)(C)c1ccc(S(=O)(=O)N[C@@H](CCCNC(=N)N)C(=O)N2CCCC[C@@H]2C(=O)N[C@@H](Cc2c[nH]c3ccccc23)C(N)=O)cc1 [Bbs-R-(d-Pip)-W-NH2] | 6000 ± 1000 | –
7 | CC[C@H](C)[C@H](NC(=O)[C@H](CCC(=O)O)NC(=O)[C@H](CCC(=O)O)NC(=O)[C@H](Cc1ccccc1)NC(=O)[C@H](CC(=O)O)NC(=O)CNC(=O)[C@H](CCC(=O)O)NC(=O)[C@@H](NC(=O)[C@H](Cc1c[nH]c2ccccc12)NC(=O)[C@@H](NC(=O)[C@H](Cc1c[nH]c2ccccc12)NC(=O)[C@@H](NC(=O)[C@H](CCCCN)NC(=O)[C@@H](NC(=O)[C@H](C)NC(=O)[C@H](CC(=O)O)NC(=O)[C@H](CC(=O)O)NC(=O)[C@H](Cc1c[nH]c2ccccc12)NC(=O)[C@@H](NC(=O)[C@H](Cc1c[nH]c2ccccc12)NC(=O)[C@H](CCC(=O)O)NC(=O)CNC(=O)[C@H](CC(=O)O)NC(=O)[C@@H](NC(=O)[C@H](Cc1ccccc1)NC(=O)[C@H](CCCNC(=N)N)NC(=O)[C@@H]1CCCN1C(=O)[C@H](CCCNC(=N)N)NC(=O)[C@@H]1CCCN1C(=O)[C@H](CCC(N)=O)NC(=O)[C@@H](N)Cc1ccccc1)[C@@H](C)O)[C@@H](C)O)[C@@H](C)O)[C@@H](C)O)[C@@H](C)O)[C@@H](C)O)C(=O)N1CCC[C@H]1C(=O)N[C@@H](CCC(=O)O)C(=O)N[C@@H](CCC(=O)O)C(=O)N[C@@H](Cc1ccc(O)cc1)C(=O)N[C@@H](CC(C)C)C(=O)O [BRI-T207] | – | Ki (Human α-thrombin [1]; T = 37° C., enzyme kinetics, chromogenic substrate): ~400 nM
8 | CC[C@H](C)[C@H](N)C(=O)N[C@@H](CCCNC(=N)N)C(=O)N[C@@H](Cc1ccccc1)C(=O)N[C@H](C(=O)N[C@@H](CC(=O)O)C(=O)NCC(=O)N[C@@H](CCC(=O)O)C(=O)NCC(=O)N[C@H](C(=O)N1CCC[C@H]1C(=O)N[C@@H](CC(N)=O)C(=O)N1CCC[C@H]1C(=O)N[C@@H](CCC(=O)O)C(=O)N[C@@H](CO)C(=O)N[C@@H](Cc1c[nH]cn1)C(=O)N[C@@H](CC(N)=O)C(=O)N[C@@H](CC(N)=O)C(=O)NCC(=O)N[C@@H](CC(=O)O)C(=O)N[C@@H](Cc1ccccc1)C(=O)N[C@@H](CCC(=O)O)C(=O)N[C@@H](CCC(=O)O)C(=O)N[C@H](C(=O)N1CCC[C@H]1C(=O)N[C@@H](CCC(=O)O)C(=O)N[C@@H](CCC(=O)O)C(=O)N[C@@H](Cc1ccc(O)cc1)C(=O)N[C@@H](CC(C)C)C(=O)N[C@@H](CCC(N)=O)C(=O)O)[C@@H](C)CC)[C@@H](C)O)[C@@H](C)O [MH2] | – | IC50 (thrombin; IC50, printed inside the sequence cell of Table 1, temperature not stated): ~14 nM
9 | CC(=O)N[C@H](Cc1ccccc1)C(=O)N1CCC[C@H]1C(=O)N[C@@H](CCCNC(=N)N)C(=O)O [Ac-dFPR] | 170000 ± 18000 | –

Second part, led by results:

Row | Ki (Human α-thrombin [2]; [5]) [nM] | Compound | other results
10 | 4380 ± 180 | CC(C)(C)OC(=O)N[C@H](Cc1ccccc1)C(=O)N1CCC[C@H]1C(=O)N[C@@H](CCCNC(=N)N)C(=O)O [Boc-dFPR] | –
11 | 1570 ± 60 | N=C(N)NCCC[C@H](NC(=O)[C@@H]1CCCN1C(=O)[C@H](N)Cc1ccccc1)C(=O)O [H-dFPR] | –
12 | 860 ± 60 | CN(C)c1cccc2c(S(=O)(=O)N[C@@H](CCCNC(=N)N)C(=O)N3Cc4ccccc4C[C@@H]3C(N)=O)cccc12 [Dansyl-R-(d-Tic)-NH2] (Dansyl-Arg-[dTic]-NH2) | –
13 | 370 ± 40 | CN(C)c1cccc2c(S(=O)(=O)N[C@@H](CCCNC(=N)N)C(=O)N3CCCC[C@@H]3C(N)=O)cccc12 [Dansyl-R-(d-Pip)-NH2] (Dansyl-Arg-[dPip]-NH2) | –
